Key:
[1] = test system: neutrophil; assay: Neutrophil chemokine production assay; format: cell-based, human; conditions: 12 h
Protocol: A volume 25 mL of human blood was layered over 15 mL of Histopaque®-1077 and centrifuged at 500 g, RT, for 30 min with no break applied to the centrifuge. The PBMC band and Histopaque®-1077 layer were removed leaving behind the bottom red layer which was mixed with 40 mL of 1× red blood cell (RBC) lysis buffer (Sigma-Aldrich) was and split into two 50 mL tubes. The volume for both fractions was brought to 50 mL with RBC lysis buffer, mixed by inversion, and then incubated at RT for 10 min. Solutions were centrifuged at 250 g, for 10 min at RT and the supernatant liquids removed. The reddish pellets were re-suspended in 1 mL of RBC lysis buffer and combined. The cell suspension was incubated for 5 min at RT in RBC lysis buffer. After incubation 45 mL of Hanks Balanced Salt Solution with no calcium, magnesium or phenol red (HBSS−) was added, the cell suspension was spun (250 g for 10 min at RT), and supernatant liquids were removed. The white pellet was re-suspended in 1 mL of HBSS−, and cell counts were determined. The neutrophil cell suspension was brought to a concentration of 1.11e6 cells/mL in RPMI complete (Sigma-Aldrich), and 180 μL of cell suspension was transferred to all wells within a sterile 96-well tissue culture treated plate resulting in 2.0e5 cells/well. […] After incubation, 10 μL of 2 μg/mL LPS solution in RPMI complete was added to each well except for control wells, which received an additional 10 μL of media. Cells were incubated for 12 h (37° C., 5% CO2), after which plates were centrifuged at 250 g, RT, for 5 min and supernatant liquids were obtained and stored at −80° C. until analyzed via Luminex® Multiplex Assay for various chemokines and cytokines. Three data points were acquired from two different blood donors and averaged.

[2] = test system: naïve CD4+ T cells; assay: Human regulatory T cell differentiation assay; format: cell-based; conditions: 6 days
Protocol: Peripheral blood mononuclear cells (PBMCs) from whole blood donated by health volunteers were separated by Ficoll-Paque gradient centrifugation and naïve CD4^+ T cells were subsequently isolated using magnet beads (EasySep™ Human Naïve CD4^+ T Cell Isolation Kit, Cambridge, MA). For regulatory T cell (Treg) differentiation assay, naïve CD4^+ T cells were cultured (1-10×10^4 cells) in CTS OpTmizer medium for 6 days and stimulated with 5 ng/ml TGF-β, 100 U/ml IL-2, and ImmunoCult™ Human […] T Cell Activator; Stemcell #10990) with/without our Compounds. Cell viability was determined using a viability dye (eBioscience Fixable Viability Dye eFluor 780: ThermoFisher 65-0865-14) at 1:500 dilution. The cells were gated for Treg, defined as Live, CD11c^−, CD14^−, CD19^−, CD8^−, CD4^+, CD3^+, CD25^+, FOXP3^+. Percent (%) Tregs were calculated as percentage of CD4^+, CD25^+, FOXP3^+ cells over total CD4 T cells. Statistical analysis was performed with GraphPad Prism Software Using One-Way ANOVA.

[3] = test system: type II collagen arthritis; assay: In vivo rheumatoid arthritis model (semi-established type II collagen arthritis); set-up: species or system Lewis rats; conditions: 420 mg/kg PO BID, rats
Protocol: A study was conducted to determine the efficacy of test articles dosed by the oral (PO) route for inhibition of the inflammation (paw swelling), cartilage destruction, and bone resorption that occurs in semi-established type II collagen arthritis in female Lewis rats. Rats (10 per group) were injected intradermally (ID) with porcine type II collagen to induce arthritis; one group of rats (4 per group) served as vehicle-treated naïve controls. […] Positive controls were treated PO, BID with the reference compound Tofacitinib citrate (10 mg/kg). The rats were euthanized for necropsy on study day 21 (animals #1-5 in each group, animals #1-2 in naïve group) or 22 (animals #6-10 in each group, animals #3-4 in naïve group). Efficacy evaluation was based on animal body weights (Table 9), daily ankle caliper measurements (FIG. 4), ankle diameter expressed as area under the curve (AUC) (Table 10), terminal hind paw weights (Table 11), histopathologic evaluation of hind paws (Ankle Inflammation score: Table 12, Ankle Pannus score: Table 13, Ankle Cartilage Damage score: Table 14, Ankle Bone Resorption score: Table 15, Ankle Periosteal Bone score: Table 16, Ankle Periosteal Bone Width: Table 17) and knees (Knee Inflammation score: Table 18, Knee Pannus score: Table 19, Knee Cartilage Damage score: Table 20, Knee Bone Resorption score: Table 21), and relative spleen to body weight ratio (Table 22). Terminal serum was analyzed by enzyme-linked immunosorbent assay (ELISA) for anti-type II collagen antibodies (IgG) (Table 23). […] Statistics were conducted using ordinary one-way ANOVA with Dunnett's multiple comparison correction in GraphPad Prism.

[4] = test system: Primary Human Peripheral Blood Mononuclear Cells (PBMCs); assay: Inflammatory signals in LPS-treated primary human PBMCs; format: cell-based; conditions: 100 uM, 24 hours
Protocol: Human donor blood (8 mL) was collected in sodium citrate CPT tubes and centrifuged at 1,600×g for 20 minutes at room temperature. Buffy coat containing PBMCs was collected and transferred to a 50 mL conical tube containing 30 mL of RPMI-1640 medium at room temperature (supplemented with penicillin-streptomycin). PBMCs samples were centrifuged at 400×g for 10 minutes at 10° C. The pelleted PBMCs were washed twice in 10 ml of RPMI-1640 medium (supplemented with penicillin-streptomycin), then resuspended in RPMI-1640 medium (supplemented with penicillin-streptomycin, fetal bovine serum, and L-Glutamine). PBMCs were filtered through a 70 micron mesh to remove any cellular debris. […] PBMCs in a 96-well plate were rested for 30 minutes in a 37° C., 5% CO2 incubator, then subsequently treated with 10 μl of indicated compound. After 2 hours 10 μL of LPS (O111:B4) 1 mg/mL was added to test wells. After 24 hours of incubation at 37° C., 5% CO2, 100 μL of cell supernatant was collected and transferred to a 96-well plate (non-tissue treated, flat bottom). The plate was centrifuged at 350×g for 5 minutes at room temperature, and then the clear supernatant transferred to a new 96-well plate (non-tissue treated, flat bottom). The remaining cells were tested for viability using CellTiter-Glo® Luminescent Cell Viability Assay (Promega). The supernatant was analyzed for TNFα, IL-6 and […] Systems), using Luminex Immunoassay Technology (MAGPIX System). Cytokine levels of LPS treated DMSO control samples were set to 100%, and compound treated samples were expressed relative to this (Table 3).

## CCCC(=O)O [butyrate]
[1]; 500.0 μM
  % IL-8 (Vehicle + LPS = 100%): ++ (++ = <70%Vehicle)
  % MIP-1α (Vehicle + LPS = 100%): +++ (+++ = <50% Vehicle)
  % MIP-1β (DMSO + LPS = 100%): +++ (+++ = <50% Vehicle)
[1]; 1000.0 μM
  % IL-8 (Vehicle + LPS = 100%): ++ (++ = <70%Vehicle)
  % MIP-1α (Vehicle + LPS = 100%): +++ (+++ = <50% Vehicle)
  % MIP-1β (DMSO + LPS = 100%): +++ (+++ = <50% Vehicle)

## CCCC(=O)O [Butyric acid, reference compound]
[2]; 3 mM
  Cell viability % DMSO: − (<90%: −)
[3]
  Mean Ankle Diameter AUC (mm*day): 92.46 mm*day
  Mean Ankle Periosteal Bone width (um): 573.30 um
  Mean Knee Inflammation score (0-5): 4.83
  Mean Terminal hind paw weights: 2.4759 g
  Mean body weight change, day −1 to 21 (%): −2.3%
  Relative Spleen to Body Weight (Mean): 0.2416
[3]; 0 = normal, 5 = severe
  Mean Ankle Bone Resorption score (0-5): 2.95
  Mean Ankle Cartilage Damage score (0-5): 3.80
  Mean Ankle Pannus score (0-5): 2.95
  Mean Ankle Periosteal Bone score (0-5): 3.08
  Mean Ankle inflammation score (0-5): 2.4759
  Mean Knee Bone Resorption score (0-5): 2.43
  Mean Knee Cartilage Damage score (0-5): 3.28
  Mean Knee Pannus score (0-5): 2.43
[3]; terminal serum ELISA for anti-type II collagen antibodies
  Serum IgG: 5824.57 µg/mL

## CN(CCOc1ccc(CC2SC(=O)NC2=O)cc1)c1ccccn1 (stereo not shown) [Rosiglitazone, rosiglitazone]
[2]; 10 uM
  Cell viability % DMSO: = (90%> <110%: =)
[2]; 100 uM
  Cell viability % DMSO: − (<90%: −)

## CC[C@H]1[C@@H](O)[C@@H]2[C@H](CC[C@]3(C)[C@@H]([C@H](C)CCC(=O)O)CC[C@@H]23)[C@@]2(C)CC[C@@H](O)C[C@@H]12 [Obeticholic acid]
[2]; 100 uM
  Cell viability % DMSO: = (90%> <110%: =)

## CC(O)CC(=O)[O-].[Na+] (stereo not shown) [Sodium BHB]
[2]; 2 mM
  Cell viability % DMSO: = (90%> <110%: =)
  Treg induction % DMSO: + (110%> <130%: +)
[2]; 20 mM
  Cell viability % DMSO: − (<90%: −)
  Treg induction % DMSO: = (90%> <110%: =)

## O=C[C@H](O)[C@@H](O)[C@@H](O)CO [L-arabinose]
[2]; 0.5 mM
  Cell viability % DMSO: = (90%> <110%: =)
[2]; 1 mM
  Cell viability % DMSO: = (90%> <110%: =)
[1]; 500.0 μM
  % IL-8 (Vehicle + LPS = 100%): − (− = >90% Vehicle)
  % MIP-1α (Vehicle + LPS = 100%): − (− = >90% Vehicle)
  % MIP-1β (DMSO + LPS = 100%): − (− = >90% Vehicle)
[1]; 1000.0 μM
  % IL-8 (Vehicle + LPS = 100%): − (− = >90% Vehicle)
  % MIP-1α (Vehicle + LPS = 100%): − (− = >90% Vehicle)
  % MIP-1β (DMSO + LPS = 100%): − (− = >90% Vehicle)
[4]
  IL1β % DMSO control: = ((=) 90%> <110% DMSO)
  IL6 % DMSO control: + ((+) 50%> <90% DMSO)
  TNFα % of DMSO control: + ((+) 50%> <90% DMSO)
